Results reported in US10581022B2, “Polymerizable liquid crystal compound, composition, liquid crystal polymerization film-kind thereof and use thereof” (JNC CORPORATION, priority 2015, dated 2020).

Experiment: Solubility of compound in solvent
Assay type: physicochemical
Set-up: key: Good: represents that the compound was completely dissolved; Poor: represents that an insoluble matter remained
Conditions: 40° C., after 30 minutes, visual
Method: With regard to various solvents, a specific amount of compound (1-1-1-1) was added to various solvents each, and the resulting mixture was warmed in warm water at 40° C., and an aspect after 30 minutes was visually confirmed. A similar method was tried in compound (1-1-2-1), compound (C-1) and compound (C-2) in place of compound (1-1-1-1).
An amount of the compound added as described in Table 4 is expressed in terms of a relative value when a total weight of the solvent and the compound is taken as 100% by weight. A term “Good” in Table 4 represents that the compound was completely dissolved, and a term “Poor” in Table 4 represents that an insoluble matter remained.

C=CC(=O)OCCCCCCOc1ccc(CCC(=O)O[C@H]2CC[C@H](C(=O)Oc3ccc(OC(=O)[C@H]4CC[C@H](OC(=O)CCc5ccc(OCCCCCCOC(=O)C=C)cc5)CC4)c4nc(-c5ccccc5)cnc34)CC2)cc1 [Compound (1-1-1-1)]
solubility in 2-acetoxy-1-methoxypropane (15% by weight of compound): Poor
solubility in 4-methyl-2-pentanone (15% by weight of compound): Poor
solubility in cyclohexanone (15% by weight of compound): Good
solubility in methoxybenzene (15% by weight of compound): Good
solubility in 2-acetoxy-1-methoxypropane (30% by weight of compound): Poor
solubility in 4-methyl-2-pentanone (30% by weight of compound): Poor
solubility in cyclohexanone (30% by weight of compound): Good
solubility in methoxybenzene (30% by weight of compound): Good

C=CC(=O)OCCCCOc1ccc(OC(=O)C2CCC(C(=O)Oc3ccc(OC(=O)C4CCC(C(=O)Oc5ccc(OCCCCOC(=O)C=C)cc5)CC4)c(C=NNc4nc5ccccc5s4)c3)CC2)cc1 (centres unmarked) [Compound (C-2)]
solubility in 2-acetoxy-1-methoxypropane (15% by weight of compound): Poor
solubility in 4-methyl-2-pentanone (15% by weight of compound): Poor
solubility in cyclohexanone (15% by weight of compound): Good
solubility in methoxybenzene (15% by weight of compound): Good
solubility in 2-acetoxy-1-methoxypropane (30% by weight of compound): Poor
solubility in 4-methyl-2-pentanone (30% by weight of compound): Poor
solubility in cyclohexanone (30% by weight of compound): Poor
solubility in methoxybenzene (30% by weight of compound): Poor

C=CC(=O)OCCCCCCOc1ccc(CCC(=O)O[C@H]2CC[C@H](C(=O)Oc3ccc(OC(=O)[C@H]4CC[C@H](OC(=O)CCc5ccc(OCCCCCCOC(=O)C=C)cc5)CC4)c4nc(-c5ccccc5)c(C)nc34)CC2)cc1 [Compound (1-1-2-1)]
solubility in 2-acetoxy-1-methoxypropane (15% by weight of compound): Good
solubility in 4-methyl-2-pentanone (15% by weight of compound): Good
solubility in cyclohexanone (15% by weight of compound): Good
solubility in methoxybenzene (15% by weight of compound): Good
solubility in 2-acetoxy-1-methoxypropane (30% by weight of compound): Poor
solubility in 4-methyl-2-pentanone (30% by weight of compound): Poor
solubility in cyclohexanone (30% by weight of compound): Good
solubility in methoxybenzene (30% by weight of compound): Good

C=CC(=O)OCCCCOc1ccc(OC(=O)[C@H]2CC[C@H](C(=O)Oc3ccc(OC(=O)[C@H]4CC[C@H](C(=O)Oc5ccc(OCCCCOC(=O)C=C)cc5)CC4)c4sc(-c5ccccc5)nc34)CC2)cc1 [Compound (C-1)]
solubility in 2-acetoxy-1-methoxypropane (15% by weight of compound): Poor
solubility in 4-methyl-2-pentanone (15% by weight of compound): Poor
solubility in cyclohexanone (15% by weight of compound): Good
solubility in methoxybenzene (15% by weight of compound): Good
solubility in 2-acetoxy-1-methoxypropane (30% by weight of compound): Poor
solubility in 4-methyl-2-pentanone (30% by weight of compound): Poor
solubility in cyclohexanone (30% by weight of compound): Poor
solubility in methoxybenzene (30% by weight of compound): Poor
